In PubChem BioAssay AID1897 (NMMLSC, 2009) one finds EC50 and Ki data, which are given here for 70 compounds.

Activity calls are given as the source filed them. No rule for the calls is given here. Some results are limits rather than exact numbers.

For the first experiment, the target named is Mitogen-activated protein kinase kinase kinase 2 (Homo sapiens) + Dual specificity mitogen-activated protein kinase kinase 5 (Homo sapiens) (UniProt Q9Y2U5+Q13163). The experiment in a line: MEKK2 PB1-MEK5 interaction blockers – biochemical, bead multiplex flow cytometry, wildtype, dose response (AID 1897). As to conditions: MEK5-MEKK2 PB1 binding. A general note: In flow cytometry, cells or beads pass a laser one at a time.
Mitogen-activated protein kinase kinase kinase 2 (Homo sapiens) + Dual specificity mitogen-activated protein kinase kinase 5 (Homo sapiens), sequence (Q13163 whole entry, looked up): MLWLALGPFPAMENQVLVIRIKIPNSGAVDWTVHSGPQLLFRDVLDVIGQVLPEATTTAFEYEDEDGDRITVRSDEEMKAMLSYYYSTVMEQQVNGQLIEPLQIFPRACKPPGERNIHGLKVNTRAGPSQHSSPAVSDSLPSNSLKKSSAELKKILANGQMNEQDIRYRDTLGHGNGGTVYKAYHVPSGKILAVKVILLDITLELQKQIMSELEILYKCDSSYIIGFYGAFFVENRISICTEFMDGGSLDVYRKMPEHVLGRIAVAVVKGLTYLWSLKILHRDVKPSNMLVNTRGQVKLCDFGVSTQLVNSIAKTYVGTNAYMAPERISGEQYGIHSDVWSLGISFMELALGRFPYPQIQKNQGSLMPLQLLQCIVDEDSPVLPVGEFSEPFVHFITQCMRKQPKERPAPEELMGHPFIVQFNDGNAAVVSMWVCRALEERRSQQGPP
Mitogen-activated protein kinase kinase kinase 2 (Homo sapiens) + Dual specificity mitogen-activated protein kinase kinase 5 (Homo sapiens), sequence (Q9Y2U5 whole entry, looked up): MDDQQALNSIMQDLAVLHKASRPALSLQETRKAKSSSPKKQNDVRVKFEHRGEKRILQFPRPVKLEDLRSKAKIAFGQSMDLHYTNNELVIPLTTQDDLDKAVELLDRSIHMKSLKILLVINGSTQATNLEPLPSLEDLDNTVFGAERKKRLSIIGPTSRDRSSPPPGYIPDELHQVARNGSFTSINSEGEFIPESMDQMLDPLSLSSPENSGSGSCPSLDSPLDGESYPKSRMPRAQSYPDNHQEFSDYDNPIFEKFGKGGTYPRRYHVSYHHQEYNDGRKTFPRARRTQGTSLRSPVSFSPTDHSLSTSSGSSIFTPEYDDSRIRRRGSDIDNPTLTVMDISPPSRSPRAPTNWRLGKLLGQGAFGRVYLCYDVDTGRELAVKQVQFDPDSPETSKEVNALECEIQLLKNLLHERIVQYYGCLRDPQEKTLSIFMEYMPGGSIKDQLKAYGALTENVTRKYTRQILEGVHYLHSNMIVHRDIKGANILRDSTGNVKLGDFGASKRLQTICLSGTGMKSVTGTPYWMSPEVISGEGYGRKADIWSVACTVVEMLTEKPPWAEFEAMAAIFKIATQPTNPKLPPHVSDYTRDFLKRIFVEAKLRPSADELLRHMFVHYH
In the case of `O=[N+]([O-])c1ccc(/C=C/C2=NN(c3ccccc3)C(c3ccco3)C2)o1` (stereo not drawn), the EC50 – broadly, the concentration that produces a half-maximal response – is > 30 µM (inactive).

Take `CN1C(=CC=C2C=C(I)C(=O)C(I)=C2)C(C)(C)c2ccccc21`: the EC50 is 9.16 µM.

Turning to `CN(C)CCCn1c(SCC(=O)Nc2nc(-c3cccc(Br)c3)cs2)nc2ccccc2c1=O`, the EC50 is > 30 µM (inactive).

Regarding `CCN(CC)CCOc1ccc2c(c1)C(=NNC(=O)c1ccccn1)c1cc(OCCN(CC)CC)ccc1-2`, the EC50 is 5.71 µM.

`Cc1ccnc(NC(=O)C2(c3cccs3)CCOCC2)c1`: the EC50 was > 30 µM (inactive).

As for `COCc1c(C#N)c(NCCc2ccccc2)nc(C)c1[N+](=O)[O-]`, the EC50 is > 30 µM (inactive).

For the compound `O=C(NNc1c2ccccc2nc2ccccc12)c1cc2ccccc2cc1O`, the EC50 is > 30 µM (inactive).

With `CCOC(=O)C(C(=O)OCC)c1cc(Br)c2noc3c2c1C(=O)c1ccccc1-3`, the EC50 is 2.82 µM.

Take `Cc1cc(N=Nc2ccc(C)c(N=Nc3cc(C)c(N)cc3N)c2)c(N)cc1N`: the EC50 is > 30 µM (inactive).

Regarding `C=CCN1C(=O)/C(=C/c2ccc(-c3ccc(F)cc3)o2)SC1=S`, the EC50 was 2.06 µM.

On to `COc1ccc(Cn2c(SCc3ccc(C)cc3)nc3cc(OC)c(OC)cc3c2=N)cc1Cl`, for which the EC50 was 1.97 µM.

Regarding `CCOC(=O)c1c(-c2ccc(-c3ccccc3)cc2)csc1NC(=O)CNCCN(C)C`, the EC50 was 1.55 µM.

For the compound `CCN(CC)CCOC(=O)c1ccc(N/C=C(/C#N)c2nc(-c3ccc(OC)cc3)cs2)cc1`, the EC50 was > 30 µM (inactive).

With `C/C(=N\NC(=O)c1cc(O)cc(O)c1)c1ccc(NC(=O)Cc2ccccc2)cc1`, the EC50 is > 30 µM (inactive).

For `COc1ccc2nc3cc(Cl)ccc3c(Nc3cc(C(C)C)c(O)cc3C)c2c1`, the EC50 is 1.94 µM.

Turning to `COc1cc2nc(N3CCN(c4cc(C)ccc4C)CC3)nc(N)c2cc1OC`, the EC50 is 3.89 µM.

Regarding `CC(=O)Nc1ccc(OCC(O)Cn2c3ccccc3c3ccccc32)cc1` (stereo not drawn), the EC50 was > 30 µM (inactive).

For `CN1CCN(c2ccc(NC(=O)c3ccc(-c4ccc(Cl)cc4)o3)cc2)CC1`, the EC50 is 2.26 µM.

Turning to `COc1cccc(OC)c1-c1nn2c(-c3cc(-c4ccccc4)n[nH]3)nnc2s1`, the concentration for a half-maximal effect (EC50) was 5.32 µM.

Regarding `CCCCCc1cc(=O)oc2c(C(CCN3CCCC3)c3ccc(N(C)C)cc3)c(OC)cc(OC)c12` (stereo not drawn), the EC50 is 20.9 µM.

Consider `CCN(CC)CCOC(=O)c1ccc(NC(=O)c2cn(-c3ccccc3)nc2-c2cccs2)cc1`, for which the EC50 was > 30 µM (inactive).

With `CNC(=O)C(=O)Nc1c(C)cc(C)cc1C`, the EC50 was > 30 µM (inactive).

Consider `CCN(Cc1ccccc1)S(=O)(=O)c1ccc(C(=O)N(CCCN(C)C)c2nc3ccc(F)cc3s2)cc1`, for which the EC50 is 5.81 µM.

Regarding `COc1ccc2nc(C)cc(N/N=C/c3ccc(F)cc3)c2c1`, the EC50 was > 30 µM (inactive).

As for `CCN(CC)CCOC(=O)c1ccc(N/C=C(/C#N)c2nc(-c3cc4ccccc4oc3=O)cs2)cc1`, the EC50 is 4.88 µM.

Consider `CNC[C@H](CC1CCCCC1)NC[C@H](Cc1ccccc1)NCCC12CC3CC(CC(C3)C1)C2`, for which the EC50 was 4.93 µM.

On to `COC(=O)C1=C(C)N(Cc2ccccc2)C(=NCc2cccc(C(F)(F)F)c2)N[C@H]1c1cccc(F)c1`, for which the EC50 is 7.03 µM.

As to `C=CC#CC[N+]1(CC#Cc2ccccc2)CCOCC1`, the EC50 is > 30 µM (inactive).

`CN(c1ccccc1)c1ccc(/C=c2\s/c(=C(/C#N)C(=O)C(C)(C)C)n(Cc3ccco3)c2=O)cc1`: the EC50 is 0.67 µM.

Consider `CN(C)c1ccc(/C=C/C=C2/SC(=S)N(c3ccccc3)C2=O)cc1`, for which the EC50 is 0.95 µM.

In the case of `COc1ccc(/C=N/Nc2cc(C)nc3ccc(Br)cc23)cc1`, the EC50 was 1.94 µM.

Turning to `N#CC(C#N)=c1ccc2c(c1)N1C(c3ccccc3)=CC(c3ccccc3)C3CCCCC31N=2` (stereo not drawn), the EC50 is 1.95 µM.

Regarding `CN(C)CCCN(C(=O)c1ccc2c(c1)CCCC2)c1nc2ccc(Cl)cc2s1`, the EC50 was > 30 µM (inactive).

Consider `O=C1c2ccccc2-c2onc3ccc(NCCCn4ccnc4)c1c23`, for which the EC50 is > 30 µM (inactive).

With `Cc1ccc(CN2CCSc3ccc(C(=O)NC4CCN(Cc5ccccc5)CC4)cc32)cc1`, the EC50 was 5.13 µM.

For the compound `CCn1cc(C(=O)O)c(=O)c2cc(F)c(N3CCN(C(=S)NC(=O)c4ccc(Br)cc4)CC3)cc21`, the EC50 was > 30 µM (inactive).

As to `COc1ccc(CNC[C@@H](CCCCN(C)Cc2ccc(OC)cc2)N2C[C@H](c3ccccc3)N(CCc3ccc(Cl)c(Cl)c3)C(=O)C2=O)cc1`, the half-maximal effective concentration (EC50) was 1.48 µM.

`CCN1/C(=C/c2ccc3cc(C)ccc3[n+]2C)Sc2ccc3sccc3c21`: the EC50 was > 30 µM (inactive).

As to `C#CCOCCOCCOCCNc1nc(N2CCN(C(=O)[C@H]([C@@H](C)CC)n3cc([C@@H](N)Cc4ccc(O)cc4)nn3)CC2)nc(N2CCN(C(=O)[C@H](Cc3cc4ccccc4[nH]3)n3cc([C@@H](N)C(C)CC)nn3)CC2)n1` (stereo partly drawn), the EC50 was 3.73 µM.

In the case of `CCOC(=O)c1c(C)n(-c2ccc(C)cc2)c2ccc(OCC(O)CN3CCN(C)CC3)cc12` (stereo not drawn), the EC50 was > 30 µM (inactive).

Take `C#CCOCCOCCOCCNc1nc(N2CCN(C(=O)[C@H](CCC(=O)O)n3cc(C(N)CO)nn3)CC2)nc(N2CCN(C(=O)[C@H](Cc3cc4ccccc4[nH]3)n3cc(C(N)[C@H](C)CC)nn3)CC2)n1` (stereo partly drawn): the EC50 is > 30 µM (inactive).

Take `NC(N)=N/N=C/c1ccc(OCc2ccccc2Cl)cc1`: the EC50 was 19.2 µM.

For the compound `O=C(OCC1O[C@@H](OC(=O)c2cc(O)c(O)c(O)c2)[C@@H](OC(=O)c2cc(O)c(O)c(O)c2)[C@@H](OC(=O)c2cc(O)c(O)c(O)c2)[C@@H]1OC(=O)c1cc(O)c(O)c(O)c1)c1cc(O)c(O)c(O)c1` (stereo partly drawn), the EC50 is > 30 µM (inactive).

As to `C#CCOCCOCCOCCNc1nc(N2CCN(C(=O)[C@H]([C@@H](C)CC)n3cc([C@@H](N)Cc4ccc(O)cc4)nn3)CC2)nc(N2CCN(C(=O)[C@H](CCCCN)n3cc([C@@H](N)CC(C)C)nn3)CC2)n1`, the EC50 is 10.1 µM.

In the case of `CC(C)N=c1cc2n(-c3ccc(Cl)cc3)c3ccccc3nc-2cc1Nc1ccc(Cl)cc1`, the EC50 was > 30 µM (inactive).

In the case of `C#CCOCCOCCOCCNc1nc(N2CCN(C(=O)[C@H](Cc3cc4ccccc4[nH]3)n3cc([C@@H](N)C(C)CC)nn3)CC2)nc(N2CCN(C(=O)[C@H](Cc3cc4ccccc4[nH]3)n3cc([C@@H](N)Cc4ccc(O)cc4)nn3)CC2)n1` (stereo partly drawn), the EC50 is 1.01 µM.

With `C#CCOCCOCCOCCNc1nc(N2CCN(C(=O)[C@H](Cc3cc4ccccc4[nH]3)n3cc([C@@H](N)C(C)CC)nn3)CC2)nc(N2CCN(C(=O)[C@H](Cc3cc4ccccc4[nH]3)n3cc([C@@H](N)CC(C)C)nn3)CC2)n1` (stereo partly drawn), the EC50 is 2.69 µM.

Turning to `CCN1CCN(Cc2ccc(NC(=O)c3cc(NC(=O)c4cnn(-c5ccccc5)c4N)cc(OC)c3)cc2C(F)(F)F)CC1`, the EC50 is > 30 µM (inactive).

Consider `Cc1cc2ccccc2n1CCNC(=O)c1cccs1`, for which the EC50 was 14.6 µM.

Take `C#CCOCCOCCOCCNc1nc(N2CCN(C(=O)C(Cc3ccc(O)cc3)n3cc(C(N)CC(C)C)nn3)CC2)nc(N2CCN(C(=O)C(Cc3cc4ccccc4[nH]3)n3cc(C(N)C(C)CC)nn3)CC2)n1` (stereo not drawn): the EC50 was > 30 µM (inactive).

As to `COc1ccc(NC(=O)N(Cc2cc3cc(C)ccc3[nH]c2=O)CC2CCCO2)cc1` (stereo not drawn), the EC50 is > 30 µM (inactive).

Consider `C#CCOCCOCCOCCNc1nc(N2CCN(C(=O)[C@H]([C@@H](C)CC)n3cc([C@@H](N)CC(C)C)nn3)CC2)nc(N2CCN(C(=O)[C@H](Cc3cc4ccccc4[nH]3)n3cc([C@@H](N)Cc4ccc(O)cc4)nn3)CC2)n1`, for which the EC50 was > 30 µM (inactive).

Consider `Cc1ccc(-c2c[n+](CC(=O)Nc3nc(-c4ccc(F)cc4)cs3)c3n2CCC3)cc1`, for which the EC50 is 9.91 µM.

Regarding `COc1ccc2[nH]c3c(C)c4ccncc4c(C)c3c2c1`, the EC50 was > 30 µM (inactive).

For `O=C1c2ccccc2-c2onc3ccc(NCc4ccco4)c1c23`, the EC50 was > 30 µM (inactive).

Take `CCNc1ccc2noc3c2c1C(=O)c1ccccc1-3`: the EC50 is 4.95 µM.

Turning to `CC[C@@H](C)[C@H](CNC)NC[C@@H](Cc1cccc2ccccc12)NCCc1cccc(C(F)(F)F)c1`, the EC50 is 2.03 µM.

Regarding `CCN1CCN(Cc2ccc(NC(=O)c3ccc(C)c(NC(=O)C(=O)c4c[nH]c5ccccc45)c3)cc2C(F)(F)F)CC1`, the EC50 was > 30 µM (inactive).

On to `N=C(N)SCc1cn(-c2ccccc2)nc1-c1ccc(Br)cc1`, for which the EC50 is 3.13 µM.

`CSc1cccc(NC(=S)N(CCCN2CCCC2)Cc2cccn2Cc2ccc(Cl)cc2)c1`: the EC50 was 5.82 µM.

With `Nc1ccc(Nc2ccccc2N)cc1`, the EC50 is 23.6 µM.

For `COc1ccccc1N1CCN(S(=O)(=O)c2ccc(Cl)s2)CC1`, the EC50 is > 30 µM (inactive).

With `CCCCCCCCCCOC(=O)Cn1c(COc2ccccc2C)[n+](C)c2ccccc21`, the EC50 was > 30 µM (inactive).

On to `CCN1/C(=C\c2ccc3cc(C)ccc3[n+]2CC)Sc2cc(C)c(C)cc21`, for which the EC50 was > 30 µM (inactive).

Regarding `CCCCn1c(O)c(/C=C/C=C/C=Nc2ccccc2)sc1=S`, the EC50 was 1.12 µM.

As to `COc1ccccc1N(CN1C(=O)c2ccccc2C1=O)C(=O)c1cccc(C)c1`, the EC50 is > 30 µM (inactive).

With `CCCCCCCCCC[N+](C)(C)CC/C=C1/c2ccccc2Sc2ccc(Cl)cc21`, the EC50 was 2.24 µM.

In the case of `CC(C)n1cc(CN2CCC(C(=O)Nc3cccc(-c4cccc(Cl)c4)c3)CC2)cn1`, the EC50 was > 30 µM (inactive).

With `C#CCOCCOCCOCCNc1nc(N2CCN(C(=O)C([C@@H](C)CC)n3cc(C(N)COC(=O)C(F)(F)F)nn3)CC2)nc(N2CCN(C(=O)[C@H](CCCCN)n3cc(C(N)[C@H](C)CC)nn3)CC2)n1` (stereo partly drawn), the EC50 was > 30 µM (inactive).

On to `CCCSc1ncnc2sc(C)c(C)c12`, for which the EC50 is > 30 µM (inactive).

Staying with this experiment, now noted: MEK5-MEKK2 PB1 binding, measured here: Ki from binding competition.
Consider `CN1C(=CC=C2C=C(I)C(=O)C(I)=C2)C(C)(C)c2ccccc21`, for which the Ki – broadly, the equilibrium dissociation constant of an inhibitor or competing ligand from its target – was 8.2 µM.

For `CCOC(=O)C(C(=O)OCC)c1cc(Br)c2noc3c2c1C(=O)c1ccccc1-3`, the inhibition constant Ki was determined as 2.53 µM.

For `C=CCN1C(=O)/C(=C/c2ccc(-c3ccc(F)cc3)o2)SC1=S`, the Ki was determined as 1.84 µM.

As to `CN1CCN(c2ccc(NC(=O)c3ccc(-c4ccc(Cl)cc4)o3)cc2)CC1`, the Ki was 2.02 µM.

Consider `COc1cccc(OC)c1-c1nn2c(-c3cc(-c4ccccc4)n[nH]3)nnc2s1`, for which the Ki was 4.76 µM.

`CCN(CC)CCOC(=O)c1ccc(N/C=C(/C#N)c2nc(-c3cc4ccccc4oc3=O)cs2)cc1`: the Ki is 4.36 µM.

Consider `CN(c1ccccc1)c1ccc(/C=c2\s/c(=C(/C#N)C(=O)C(C)(C)C)n(Cc3ccco3)c2=O)cc1`, for which the Ki came to 0.6 µM.

For `CN(C)c1ccc(/C=C/C=C2/SC(=S)N(c3ccccc3)C2=O)cc1`, the Ki is 0.85 µM.

For `N#CC(C#N)=c1ccc2c(c1)N1C(c3ccccc3)=CC(c3ccccc3)C3CCCCC31N=2` (stereo not drawn), the Ki turned out to be 1.75 µM.

For `Cc1cc2ccccc2n1CCNC(=O)c1cccs1`, the Ki worked out at 13.1 µM.

For the compound `CCNc1ccc2noc3c2c1C(=O)c1ccccc1-3`, the Ki turned out to be 4.43 µM.

Consider `Nc1ccc(Nc2ccccc2N)cc1`, for which the inhibitory constant (Ki) turned out to be 21.1 µM.

As to `CCCCn1c(O)c(/C=C/C=C/C=Nc2ccccc2)sc1=S`, the Ki is 1 µM.
